We go through 24 molecules from patent publication US20240132431A1, “METHOD FOR ALKYLATING ACIDIC FUNCTIONAL GROUP” (Chugai Seiyaku Kabushiki Kaisha, priority 2021, published 2024).

In this assay the target is T1, Bcl-2 protein (Recombinant Human Bcl-2 Protein) (Homo sapiens, UniProt P10415).
T1 construct: purchased Novus NBP2-34889
The assay is described as follows: Binding evaluation of mixture library compounds to Bcl-2 using AS-MS (affinity selection mass spectrometry). Conditions: for ASMS ratio (%) n = 1 / ASMS ratio (%) n = 2: ASMS Ratio(%)=(A−C)/B×100; for ASMS ratio (%) n = 1: replicate n = 1; for ASMS ratio (%) n = 2: replicate n = 2. The method in brief:
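Readout is ASMS Ratio (%), (A−C)/B×100, from reversed-phase LC/MS of SEC-passed extracts, with protein-free unfiltered standard (B) and protein-free SEC blank (C). Recombinant human Bcl-2 at 20 μM final met ~1200 pooled compounds at […] each for 1 h, 23° C., dark, in Tris-HCl pH 7.4 buffer.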

The mark [1] stands for this setting: AS-MS on the mixture of 1200 library compounds.
Where [2] appears, read: AS-MS, mixture of 1200 compounds, Bcl-2.

T1 sequence (P10415 whole entry): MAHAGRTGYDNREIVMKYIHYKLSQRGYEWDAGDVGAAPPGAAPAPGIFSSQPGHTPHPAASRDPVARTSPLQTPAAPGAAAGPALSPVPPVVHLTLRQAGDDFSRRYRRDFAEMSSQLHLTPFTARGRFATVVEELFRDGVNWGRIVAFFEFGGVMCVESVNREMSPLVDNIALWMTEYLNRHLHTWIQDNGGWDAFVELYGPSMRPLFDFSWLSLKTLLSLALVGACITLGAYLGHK

For `CCOc1cccc(-c2ccc(CN3CCN(c4ccc(C(=O)Nc5ccc(OC)cc5)nn4)CC3)c(OC)c2)c1` [B1O079-01, 6-[4-[[4-(3-Ethoxyphenyl)-2-methoxyphenyl]methyl]piperazin-1-yl]-N-(4-methoxyphenyl)pyridazine-3-carboxamide], under setting [1], the “ASMS ratio (%) n = 1” value was 4.5% and the “ASMS ratio (%) n = 2” value worked out at 1.3%.

Take `CCOc1cncc(-c2csc(C(=O)N3CCN(c4ccc(C(=O)NS(=O)(=O)C(C)(C)C)cc4)CC3)c2)c1` [B2L024-01, N-tert-Butylsulfonyl-4-[4-[4-(5-ethoxypyridin-3-yl)thiophene-2-carbonyl]piperazin-1-yl]benzamide]: the “ASMS ratio (%)” value by setting is: (n = 1) 0.0%; (n = 2) 0.0%.

`CCOc1cccc(C#Cc2cncc(C(=O)N3CCN(c4ccc(C(=O)NCC56CC7CC(CC(C7)C5)C6)nn4)CC3)c2)c1` [B1A009-01, N-(1-Adamantylmethyl)-6-[4-[5-[2-(3-ethoxyphenyl)ethynyl]pyridine-3-carbonyl]piperazin-1-yl]pyridazine-3-carboxamide]: under setting [2], the “ASMS ratio (%) n = 1” value stood at 3.0% and the “ASMS ratio (%) n = 2” value amounted to 0.0%.

Turning to “4-[4-[[4-(5-Ethoxypyridin-3-yl)-3-methylphenyl]methyl]piperazin-1-yl]-N-propylbenzamide [B1M064-01]”, under setting [2], the “ASMS ratio (%) n = 1” value came out at 5.4% and the “ASMS ratio (%) n = 2” value is given as −4.3%.

As to `CCOc1cncc(-c2ccc(CN3CCN(c4ccc(C(=O)NS(C)(=O)=O)cc4)CC3)c(CC)c2)c1` [B2I050-01, 4-[4-[[4-(5-Ethoxypyridin-3-yl)-2-ethylphenyl]methyl]piperazin-1-yl]-N-methylsulfonylbenzamide], the “ASMS ratio (%)” value by setting is: (n = 1) 0.0%; (n = 2) −1.5%.

As for `CCOc1cncc(-c2ccc(C(=O)N3CCN(c4ccc(C(=O)NS(=O)(=O)C(C)(C)C)cc4)CC3)cc2C)c1` [B2L026-01, N-tert-Butylsulfonyl-4-[4-[4-(5-ethoxypyridin-3-yl)-3-methylbenzoyl]piperazin-1-yl]benzamide], the “ASMS ratio (%)” value reads like this: (n = 1) 0.0%; (n = 2) 0.0%.

Regarding `CCOc1cncc(-c2ccccc2CCC(=O)N2CCN(c3ccc(C(=O)Nc4ccc(OC)cc4)nn3)CC2)c1` [B1O012-01, 6-[4-[3-[2-(5-Ethoxypyridin-3-yl)phenyl]propanoyl]piperazin-1-yl]-N-(4-methoxyphenyl)pyridazine-3-carboxamide], under setting [1], the “ASMS ratio (%) n = 1” value came to 0.8% and the “ASMS ratio (%) n = 2” value is −0.9%.

Consider `CCOc1cncc(-c2cc(CN3CCN(c4ccc(C(=O)N(CC)CC)nn4)CC3)cc(OC(C)C)c2)c1` [B4J084-01, 6-[4-[[3-(5-Ethoxypyridin-3-yl)-5-propan-2-yloxyphenyl]methyl]piperazin-1-yl]-N,N-diethylpyridazine-3-carboxamide], for which, under “AS-MS, mixture library, Bcl-2”, the “ASMS ratio (%) n = 1” value turned out to be 0.0% and the “ASMS ratio (%) n = 2” value is −0.6%.

Turning to `CCOc1cncc(-c2cc(CN3CCN(c4ccc(C(=O)NS(C)(=O)=O)cc4)CC3)cc(OCC)c2)c1` [B2I056-01], the “ASMS ratio (%)” value is recorded as 0.0% (n = 1) and 0.0% (n = 2).

Consider “4-[4-[5-[2-(3-Ethoxyphenyl)ethynyl]pyridine-3-carbonyl]piperazin-1-yl]-N-propylbenzamide [B1M002-01]”, for which, under setting [2], the “ASMS ratio (%) n = 1” value is recorded as −0.7% and the “ASMS ratio (%) n = 2” value is −1.5%.

As for `CCOc1cncc(-c2ccc(C(=O)N3CCN(c4ccc(C(=O)NS(=O)(=O)c5ccc(NCCSc6ccccc6)c([N+](=O)[O-])c5)nn4)CC3)cc2C)c1` [B2Q004-01, 6-[4-[4-(5-Ethoxypyridin-3-yl)-3-methylbenzoyl]piperazin-1-yl]-N-[3-nitro-4-(2-phenylsulfanylethylamino)phenyl]sulfonylpyridazine-3-carboxamide], under “AS-MS, mixture library, Bcl-2”, the “ASMS ratio (%) n = 1” value was found to be 10.7% and the “ASMS ratio (%) n = 2” value came to 8.7%.

`CCOc1cncc(-c2ccc(CN3CCN(c4ccc(C(=O)NS(=O)(=O)c5ccc(NCCSc6ccccc6)c([N+](=O)[O-])c5)nn4)CC3)c(OC)c2)c1` [B2Q080-01, 6-[4-[[4-(5-Ethoxypyridin-3-yl)-2-methoxyphenyl]methyl]piperazin-1-yl]-N-[3-nitro-4-(2-phenylsulfanylethylamino)phenyl]sulfonylpyridazine-3-carboxamide]: for the setting “AS-MS, mixture library, Bcl-2”, the “ASMS ratio (%) n = 1” value was determined as 12.6% and the “ASMS ratio (%) n = 2” value is 3.6%.

Consider `CCOc1cccc(-c2ccc(C(C)N3CCN(c4ccc(C(=O)NS(=O)(=O)CC56CC7CC(CC(C7)C5)C6)cc4)CC3)c(F)c2)c1` (stereo not drawn) [B2A099-01, N-(1-Adamantylmethylsulfonyl)-4-[4-[1-[4-(3-ethoxyphenyl)-2-fluorophenyl]ethyl]piperazin-1-yl]benzamide], for which, for the setting “AS-MS, mixture library, Bcl-2”, the “ASMS ratio (%) n = 1” value is on record as 0.0% and the “ASMS ratio (%) n = 2” value was 0.0%.

For the molecule `CCOc1cncc(-c2ccc(C(=O)N3CCN(c4ccc(C(=O)N(C)CC56CC7CC(CC(C7)C5)C6)nn4)CC3)c3ccccc23)c1` [B3A014-01, N-(1-Adamantylmethyl)-6-[4-[4-(5-ethoxypyridin-3-yl)naphthalene-1-carbonyl]piperazin-1-yl]-N-methylpyridazine-3-carboxamide], under setting [1], the “ASMS ratio (%) n = 1” value was determined as 0.6% and the “ASMS ratio (%) n = 2” value is 0.8%.

For `CCOc1cccc(-c2cc(OC)c(CN3CCN(c4ccc(C(=O)NS(=O)(=O)c5ccc(NCCSc6ccccc6)c([N+](=O)[O-])c5)nn4)CC3)c(OC)c2)c1` [B2Q085-01, 6-[4-[[4-(3-Ethoxyphenyl)-2,6-dimethoxyphenyl]methyl]piperazin-1-yl]-N-[3-nitro-4-(2-phenylsulfanylethylamino)phenyl]sulfonylpyridazine-3-carboxamide], for the setting “AS-MS, mixture library, Bcl-2”, the “ASMS ratio (%) n = 1” value worked out at 14.9% and the “ASMS ratio (%) n = 2” value came out at 0.7%.

For the molecule `CCOc1cccc(-c2cc(OC)c(CN3CCN(c4ccc(C(=O)N(C)CC56CC7CC(CC(C7)C5)C6)nn4)CC3)c(OC)c2)c1` [B3A085-01, N-(1-Adamantylmethyl)-6-[4-[[4-(3-ethoxyphenyl)-2,6-dimethoxyphenyl]methyl]piperazin-1-yl]-N-methylpyridazine-3-carboxamide], under setting [1], the “ASMS ratio (%) n = 1” value is reported as 5.3% and the “ASMS ratio (%) n = 2” value is −7.1%.

With `CCOc1cccc(C#Cc2cncc(C(=O)N3CCN(c4ccc(C(=O)NS(=O)(=O)c5ccc(NCCSc6ccccc6)c([N+](=O)[O-])c5)nn4)CC3)c2)c1` [B2Q009-01, 6-[4-[5-[2-(3-Ethoxyphenyl)ethynyl]pyridine-3-carbonyl]piperazin-1-yl]-N-[3-nitro-4-(2-phenylsulfanylethylamino)phenyl]sulfonylpyridazine-3-carboxamide], under “AS-MS, mixture library, Bcl-2”, the “ASMS ratio (%) n = 1” value was 16.5% and the “ASMS ratio (%) n = 2” value is listed as 0.5%.

As to “6-[4-[[3-(3-Ethoxyphenyl)-5-propan-2-yloxyphenyl]methyl]piperazin-1-yl]-N-propylpyridazine-3-carboxamide [B1M016-01]”, under setting [2], the “ASMS ratio (%) n = 1” value is recorded as 0.0% and the “ASMS ratio (%) n = 2” value amounted to 0.0%.

As to `CCOc1cncc(-c2cc(OC)c(CN3CCN(c4ccc(C(=O)NS(=O)(=O)CCC(F)(F)F)cc4)CC3)c(OC)c2)c1` [B2N060-01, 4-[4-[[4-(5-Ethoxypyridin-3-yl)-2,6-dimethoxyphenyl]methyl]piperazin-1-yl]-N-(3,3,3-trifluoropropylsulfonyl)benzamide], the “ASMS ratio (%)” value runs as follows: (n = 1) 0.0%; (n = 2) 0.0%.

Take `CCOc1cccc(C#Cc2cc(C(=O)N3CCN(c4ccc(C(=O)NS(=O)(=O)c5ccc(NCCSc6ccccc6)c([N+](=O)[O-])c5)cc4)CC3)cc(C(F)(F)F)c2)c1` [B2Q041-01, 4-[4-[3-[2-(3-Ethoxyphenyl)ethynyl]-5-(trifluoromethyl)benzoyl]piperazin-1-yl]-N-[3-nitro-4-(2-phenylsulfanylethylamino)phenyl]sulfonylbenzamide]: where the note is “AS-MS, mixture library, Bcl-2”, the “ASMS ratio (%) n = 1” value stood at 2.6% and the “ASMS ratio (%) n = 2” value came to 0.2%.

For `CCOc1cncc(C#Cc2cncc(C(=O)N3CCN(c4ccc(C(=O)NS(C)(=O)=O)cc4)CC3)c2)c1` [B2I032-01, 4-[4-[5-[2-(5-Ethoxypyridin-3-yl)ethynyl]pyridine-3-carbonyl]piperazin-1-yl]-N-methylsulfonylbenzamide], for the setting “AS-MS, mixture library, Bcl-2”, the “ASMS ratio (%) n = 1” value was −1.6% and the “ASMS ratio (%) n = 2” value is −1.6%.

In the case of `CCOc1cncc(-c2ccc(CN3CCN(c4ccc(C(=O)Nc5ccc(OC)cc5)nn4)CC3)cc2C)c1` [B1O074-01, 6-[4-[[4-(5-Ethoxypyridin-3-yl)-3-methylphenyl]methyl]piperazin-1-yl]-N-(4-methoxyphenyl)pyridazine-3-carboxamide], under setting [1], the “ASMS ratio (%) n = 1” value was found to be 3.9% and the “ASMS ratio (%) n = 2” value is reported as −0.9%.

With `CCOc1cccc(-c2ccc(C(=O)N3CCN(c4ccc(C(=O)Nc5ccc(OC)cc5)cc4)CC3)c3ccccc23)c1` [B1O035-01, 4-[4-[4-(3-Ethoxyphenyl)naphthalene-1-carbonyl]piperazin-1-yl]-N-(4-methoxyphenyl)benzamide], under setting [1], the “ASMS ratio (%) n = 1” value worked out at 4.3% and the “ASMS ratio (%) n = 2” value is given as −3.7%.

Regarding `CCOc1cncc(-c2ccc(CN3CCN(c4ccc(C(=O)NS(C)(=O)=O)nn4)CC3)c(CC)c2)c1` [B2I076-01, 6-[4-[[4-(5-Ethoxypyridin-3-yl)-2-ethylphenyl]methyl]piperazin-1-yl]-N-methylsulfonylpyridazine-3-carboxamide], the “ASMS ratio (%)” value was 0.2% (n = 1) and −3.2% (n = 2).
